Experimental data reported in patent US4454123A, “O-xylopyranoside series compounds and methods of use” (Seikagaku Kogyo Co. Ltd., priority 1980, dated 1984).
Entries after “also recorded” stand apart in the source; their conditions may differ. Like-named read-outs stand apart in the source and are kept apart here.

Columns and labels:
Sarcoma-180 = assay: Activity against a transplantable cancer, Sarcoma-180 (Test Example 7); type: in vivo, ICR-JCL mice; settings: Mus musculus, Sarcoma-180, ip, 240 h, 100 mg/kg ip once a day for 10 days; read-out: I.R. (inhibition ratio, Sarcoma-180 tumor weight)
Experimental: Sarcoma-180 cells (1×10^6 cells) were inoculated subcutaneously into the back skin of each of ICR-JCL mice.
Chemotherapy was given intraperitoneally 24 hrs. after inoculation and performed once a day for 10 days. Each specimen to be administered was prepared by dissolving or suspending 30 mg of each compound according to this invention in 1 ml of a physiological saline or in 1 ml of a 0.2% solution of carboxymethylcellulose in a physiological saline, respectively.
All the solutions and the suspensions thus prepared were injected at a volume of 0.1 ml as a single dose (100 mg/Kg).
The inhibition ratio (%) was calculated according to the following equation: […]
wherein T represents the mean weight of the tumor Sarcoma-180 in a tested group of mice; and C represents the mean weight of the tumor in a control group of mice.

[1] = Acute toxicity (LD50) by oral or intraperitoneal administration to ddY mice (Test Example 6); type: in vivo; settings: mouse, in vivo, 7 days
Experimental: The acute toxicity of the compound according to this invention was determined by forced oral or intraperitoneal administration thereof to ddY mice.
To prepare each specimen to be administered, a predetermined amount of each compound shown in Table 5 was dissolved in a physiological saline or suspended in a 0.2% solution of carboxymethylcellulose in a physiological saline. Each specimen was administered orally to a ddY mouse via its stomach tube or injected intraperitoneally.

[2] = test system: synthesis of [35S]glycosaminoglycan in epiphysial cartilages; assay: Recovery in the rate of 35S uptake in cartilage in which glycosaminoglycan synthesis was inhibited by cycloheximide (Test Examples 4, 5); type: cell-based, chick embryos; settings: for effectiveness as initiator for the synthesis of chondroitin sulfate: 1.0 mM solution in DMSO, in words; for Rate of 35S uptake: cycloheximide 0.3 mM; for 35S uptake as compared with the case where no xylopyranoside was added: 0.02 mM solution in DMSO
Experimental: (§1) Epiphysial cartilages were taken from chick embryos aged 12 days in the Tyrode's medium under ice-cooling, and excess tissues were removed therefrom. To 150 mg. of cartilages corresponding to five embryos, 5 ml. of BGJb [a completely synthetic culture medium prepared according to a recipe of GIBCO (Grand Island Biological Company)] was added, followed by pre-incubation at a temperature of 37° C. After replacing the culture medium, further 1 ml. of BGJb and 5 μCi Na2^35 SO4 were added, and the culture system was kept at 37° C. for 3 hours. The culture medium was then replaced by 1 ml. of a fresh chase medium containing no radio active isotope. After keeping the culture system at 37° C. for 1 hour, the culture medium was separated from the tissues. To study the effects of the xyloside compound on the synthesis of glycosaminoglycan, the xyloside compound was added in the predetermined concentration to the pre-incubation and incubation media.
(§2) After the incubation, the labeled medium containing Na2^35 SO4 was combined with the chase medium. Pronase-P (trade name) (available from Kaken Kagaku Co., Ltd.) was added thereto in a 0.5 M tris-HCl buffer solution (pH 8.0), and the resulting mixture was digested at 50° C. for 16 hours. The digested reaction mixture was then subjected to gel filtration through a column (1.5×14 cm.) packed with Bio-Gel P-2 (available from Bio-Rad Company) using a 0.2 M ammonium formate solution as an eluate. In this way, the Vo fraction was collected and was then freeze-dried to give a crude glycosaminoglycan.
(§3) On the other hand, ice-cold 4 M guanidine hydrochloride was added to the tissues which were previously separated from the culture medium. The resulting mixture was left to stand overnight at a temperature of -20° C., and then homogenized. The obtained homogenate was left to stand overnight at room temperature and centrifuged at a speed of 8,500 rpm to obtain a supernatant. To the obtained liquid, water was added in an amount threefold that of the supernatant. Then, a 95% ethyl alcohol (containing 1.3% of potassium acetate) was added to the resulting mixture in an amount threefold that of the mixture to obtain a precipitate. This procedure was repeated twice, and the combined precipitates were dried in a desiccator. The obtained precipitates were dissolved in a 0.02 M tris-HCl buffer solution (pH 8.0) and digested with Pronase-P in the manner similar to the culture medium described above, thereby obtaining a crude glycosaminoglycan.
(§4) According to the same procedure as in Test example 1, a crude glycosaminoglycan was obtained.
As the xyloside compound, publicly-known methyl 1-thio-β-D-xylopyranoside and n-butyl 1-thio-β-D-xylopyranoside,and six compounds according to the present invention viz. n-heptyl 1-thio-β-D-xylopyranoside, n-nonyl 1-thio-β-D-xylopyranoside, n-decyl 1-thio-β-D-xylopyranoside, n-undecyl […], n-lauryl 1-thio-β-D-xylopyranoside and n-cetyl 1-thio-β-D-xylopyranoside were used. The effects of these compounds on the total amount of [^35 S]glycosaminoglycan synthesized (^35 S uptake amount) were investigated.
That is, after the effect of the addition of DMSO (dimethyl sulfoxide) which is a solvent was investigated, […], thereby inhibiting the synthesis of [^35 S]glycosaminoglycan by around up to 95%. Subsequently, to the medium in which the synthesis of glycosaminoglycan had been inhibited, there was added each solution of the xyloside compound in DMSO having various concentrations to investigate the recovery in the rate of the ^35 S uptake (the relative value expressed by percentage ^35 S uptake relative to the amount of uptake in a control medium to which no xylpyranoside compound was added).
According to the same procedure as in Example 1, a crude glycosaminoglycan was obtained. […]

[3] = test system: synthesis of chondroitin sulfate in epiphysial cartilages; assay: Effect of xyloside compounds on synthesis of [35S]glycosaminoglycan (chondroitin sulfate) in epiphysial cartilage culture (Test Examples 1-3); type: cell-based, chick embryos; settings: for concentration required compared with O-β-D-xylopyranoside compounds / effectiveness as initiator for the synthesis of chondroitin sulfate / total 35S uptake amount of glycosaminoglycan as the concentration of the xyloside compound rose: in words; for total 35S uptake amount of glycosaminoglycan as the concentration of the xyloside compound rose: concentration in culture medium varied; for activity at 1000 µM: Gallus gallus
Experimental: as §1, §2, §3
As the xyloside compound, conventional O-paranitrophenyl-β-D-xylopyranoside, and two compounds according to the present invention viz. C-n-butyl-β-D-xylopyranoside and C-ethyl-β-D-xylopyranoside were used. The effects of these xyloside compounds on the total amount of [^35 S] glycosaminoglycan synthesized (^35 S uptake amount), the amount thereof liberated to the culture medium and the amount thereof remaining in the tissues were as shown in FIGS. 1 to 3.
In each Figure, the vertical axis denotes the amount of [^35 S]chondroitin sulfate (^35 S cpm×10^-4 /μmol.uronic acid) and the horizontal axis denotes the concentration (mM) of each xylopyranoside compound in the culture medium.
as §4
As the xyloside compound, conventional O-paranitrophenyl β-D-xylopyranoside and N-para(sodiumoxycarbonyl)phenyl-D-xylopyranosylamine, and three compounds according to the present invention viz. para(sodiumoxycarbonyl)phenyl β-D-xylopyranoside, C-para(sodiumoxycarbonyl)benzyl-β-D-xylopyranoside and para(sodiumoxycarbonyl)phenyl 1-thio-β-D-xylopyranoside were used. The effects of these xyloside compounds on the total amount of [^35 S]glycosaminoglycan synthesized (^35 S uptake amount) were shown in FIGS. 3 to 7. […]

[4] = ip, intraperitoneal, read-out: LD50 (ip)

## O[C@@H]1[C@@H](O)[C@H](Cc2ccccc2)OC[C@H]1O [C-Benzyl-1-β-D-xylopyranoside, C-Benzyl-β-D-xylopyranoside]
Sarcoma-180
  inhibition in vivo at 100 mg/kg: 30.9%
[1]; [4]
  LD50 at 168 h: 2400 mg/kg
[1]; po, read-out: LD50 (po)
  LD50 at 168 h: 7200 mg/kg

## O=C(O)c1ccc(C[C@@H]2OC[C@@H](O)[C@H](O)[C@H]2O)cc1 [C-Para(lithiumoxycarbonyl)benzyl-β-D-xylopyranoside]
Sarcoma-180
  inhibition in vivo at 100 mg/kg: 44.7%
[1]; [4]
  LD50 at 168 h: 2500 mg/kg
[1]; po, read-out: LD50 (po)
  LD50 at 168 h: 8600 mg/kg

## CCCCCCC[C@@H]1OC[C@@H](O)[C@H](O)[C@H]1O [C-n-Heptyl-β-D-xylopyranoside]
Sarcoma-180
  inhibition in vivo at 100 mg/kg: 54.8%
[1]; [4]
  LD50 at 168 h: 1040 mg/kg
[1]; po, read-out: LD50 (po)
  LD50 at 168 h: 4200 mg/kg
[2]
  effectiveness as initiator for the synthesis of chondroitin sulfate: extremely effective initiators for the synthesis of chondroitin sulfate
[2]; xyloside 0.2 mM, DMSO 0.1%
  Rate of 35S uptake: 114.0%
[2]; xyloside 0.5 mM, DMSO 0.1%
  Rate of 35S uptake: 183.0%
[2]; xyloside 1.0 mM, DMSO 0.1%
  Rate of 35S uptake: 193.0%

## CCCCCC[C@@H]1OC[C@@H](O)[C@H](O)[C@H]1O [C-n-hexyl-β-D-xylopyranoside, C-n-Hexyl-β-D-xylopyranoside]
[2]
  effectiveness as initiator for the synthesis of chondroitin sulfate: extremely effective initiators for the synthesis of chondroitin sulfate
[2]; xyloside 0.2 mM, DMSO 0.1%
  Rate of 35S uptake: 82.0%
[2]; xyloside 0.5 mM, DMSO 0.1%
  Rate of 35S uptake: 148.0%
[2]; xyloside 1.0 mM, DMSO 0.1%
  Rate of 35S uptake: 196.0%

## CC(C)CCS[C@@H]1OC[C@@H](O)[C@H](O)[C@H]1O [Isoamyl 1-thio-β-D-xylopyranoside]
Sarcoma-180
  inhibition in vivo at 100 mg/kg: 35.6%
[1]; [4]
  LD50 at 168 h: 1850 mg/kg
[1]; po, read-out: LD50 (po)
  LD50 at 168 h: 5800 mg/kg

## CC(C)S[C@@H]1OC[C@@H](O)[C@H](O)[C@H]1O [Isopropyl 1-thio-β-D-xylopyranoside]
Sarcoma-180
  inhibition in vivo at 100 mg/kg: 30.4%
[1]; [4]
  LD50 at 168 h: 2200 mg/kg
[1]; po, read-out: LD50 (po)
  LD50 at 168 h: 6700 mg/kg

## NC(=O)c1ccc(NC2OC[C@@H](O)[C@H](O)[C@H]2O)cc1 (stereo partly drawn) [N-carbamoylphenyl-D-xylopyranosylamine, N-Paracarbamoylphenyl-D-xylopyranosylamine]
[3]
  concentration required compared with O-β-D-xylopyranoside compounds: requires higher concentration as compared with the O-β-D-xylopyranoside compounds
  effectiveness as initiator for the synthesis of chondroitin sulfate: good initiator for the synthesis of chondroitin sulfate
  total 35S uptake amount of glycosaminoglycan as the concentration of the xyloside compound rose: increased as the concentration of the xyloside compound rose

## O=C(O)c1ccc(NC2OC[C@@H](O)[C@H](O)[C@H]2O)cc1 (stereo partly drawn) [N-para(sodiumoxycarbonyl)phenyl-D-xylopyranosylamine]
[3]
  concentration required compared with O-β-D-xylopyranoside compounds: requires higher concentrations as compared with O-paranitrophenyl-β-D-xylopyranoside
  total 35S uptake amount of glycosaminoglycan as the concentration of the xyloside compound rose: shows a similar tendency; also recorded: does not change remarkably within the range of the concentration of 0 to 20 mM of the compound and that the increase in the total uptake amount thereafter is mild

## O=[N+]([O-])c1ccc(O[C@@H]2OC[C@@H](O)[C@H](O)[C@H]2O)cc1 [O-paranitrophenyl-β-D-xylopyranoside]
[3]; at 1 mM, read-out: [35S]glycosaminoglycan liberated to the culture medium
  activity at 1000 µM: 95%
[3]; at 1 mM, read-out: [35S]glycosaminoglycan remaining in the tissues
  activity at 1000 µM: 11%
[3]; at 1 mM
  35S uptake of glycosaminoglycan: 40800 cpm
  35S uptake of glycosaminoglycan relative to control: 2.35 times that of the control
  [35S]glycosaminoglycan remaining in the tissues: 11 % of the control
[3]
  effectiveness as initiator for the synthesis of chondroitin sulfate: extremely effective as an initiator for the synthesis of chondroitin sulfate; also recorded: extremely effective as the initiator for the synthesis of condroitin sulfate
  total 35S uptake amount of glycosaminoglycan as the concentration of the xyloside compound rose: increased

## O=C(O)c1ccc(S[C@@H]2OC[C@@H](O)[C@H](O)[C@H]2O)cc1 [Para(lithiumoxycarbonyl)phenyl 1-thio-β-D-xylopyranoside]
Sarcoma-180
  inhibition in vivo at 100 mg/kg: 47.2%
[1]; [4]
  LD50 at 168 h: 2700 mg/kg
[1]; po, read-out: LD50 (po)
  LD50 at 168 h: 7800 mg/kg

## O=C(O)c1ccc(O[C@@H]2OC[C@@H](O)[C@H](O)[C@H]2O)cc1 [Para(potassiumoxycarbonyl)phenyl-β-D-xylopyranoside]
Sarcoma-180
  inhibition in vivo at 100 mg/kg: 44.8%
[1]; [4]
  LD50 at 168 h: 3020 mg/kg
[1]; po, read-out: LD50 (po)
  LD50 at 168 h: 9800 mg/kg

## C[C@@H]1C[C@@H]([C@H](O)CC2CC(=O)NC(=O)C2)C(=O)[C@@H](C)C1 [cycloheximide, reference compound]
[2]; Gallus gallus, read-out: inhibition of the synthesis of [35S]glycosaminoglycan
  inhibition at 30 µM: ~95%
[2]; no xyloside, DMSO 0%, relative to control medium
  Rate of 35S uptake: 5.5%
[2]; no xyloside, DMSO 0.1%, relative to control medium
  Rate of 35S uptake: 4.9%
[2]; no xyloside, DMSO 0.2%, relative to control medium
  Rate of 35S uptake: 6.1%
[2]; no xyloside, DMSO 0.5%, relative to control medium
  Rate of 35S uptake: 6.1%
[2]; no xyloside, DMSO 1.0%, relative to control medium
  Rate of 35S uptake: 5.8%

## CCCCCCCS[C@@H]1OC[C@@H](O)[C@H](O)[C@H]1O [n-heptyl 1-thio-β-D-xylopyranoside, n-Heptyl 1-thio-β-D-xylopyranoside]
[2]
  35S uptake as compared with the case where no xylopyranoside was added: around twice

## CCCCCCCCS[C@@H]1OC[C@@H](O)[C@H](O)[C@H]1O [n-octyl 1-β-D-xylopyranoside, n-Octyl 1-thio-β-D-xylopyranoside]
[2]
  35S uptake as compared with the case where no xylopyranoside was added: around twice
